Mass density data for 8 molecules are collected here from the NIST ThermoML archive (doi:10.1021/je8006698).

± gives the expanded uncertainty stated by the source.

Broadly, the mass density is the mass of a sample divided by its volume.

The conditions of this series: 298.15 K; 101.33 kPa; Liquid; Pycnometric method.
`CCC(C)(C)OC` [2-methoxy-2-methylbutane]: the mass density worked out at 765.68 ± 0.69 kg/m3.
As for `CCCCO` [butan-1-ol], the mass density came to 805.87 ± 0.72 kg/m3.
As for `CCC(C)O` (stereo not drawn) [butan-2-ol], the mass density was determined as 802.73 ± 0.72 kg/m3.
With `CCO` [ethanol], the mass density was 785.29 ± 0.71 kg/m3.
As to `CO` [methanol], the mass density worked out at 786.64 ± 0.71 kg/m3.
Take `CCCO` [propan-1-ol]: the mass density worked out at 799.89 ± 0.72 kg/m3.
Under `CC(C)O` [propan-2-ol] stands 781.34 ± 0.7 kg/m3; under `O` [water], 997.17 ± 0.9 kg/m3.
